In assay [1] the test system is P. aeruginosa (B004 V2S2 B). Nature of the assay: microbe, parasite or virus in culture. Type of assay: cell-based, Pseudomonas aeruginosa. The note with it: B004 V2S2 B; for MBC: 18 h; for MIC: 24 h. As for the experimental part:
(§1) The antimicrobial activities of peptides were evaluated against the Gram-positive bacteria, S. aureus (ATCC 6538), methicillin-resistant Staphylococcus aureus (MRSA) (NCTC 12493), Enterococcus faecalis (E. faecalis) (NCTC 12697); the Gram-negative bacteria, E. coli (ATCC CRM 8739), Klebsiella pneumoniae (K. pneumoniae) (ATCC 43816), Pseudomonas aeruginosa (P. aeruginosa) (ATCC CRM 9027); and the yeast, Candida albicans (C. albicans) (ATCC CRM 10231). Clinical isolates of MRSA (B042 V2E1 A), E. coli (ATCC BAA-2340), K. pneumoniae (ATCC BAA-1705), and P. aeruginosa (B004 V2S2 B) were also used to determine their antimicrobial activities. The suspension of microorganisms in the logarithmic growth phase with a specific final density (Gram-negative and Gram-positive bacteria: 5 × 10^5 CFU/mL; yeast: 1 × 10^6 CFU/mL) was incubated with different peptide concentrations from 1 µM to 512 µM at 37 °C for 24 h. PBS was used as the negative control, and norfloxacin and amphotericin B were selected as the positive control for bacteria and yeast, respectively. Since the Norfloxacin had weak activities against P. aeruginosa (B004 V2S2 B) and K. pneumoniae (ATCC BAA 1705), gentamicin was used as the positive control for these two bacterial strains. The absorbance of each well was obtained using a microplate reader (EL808, Biolise BioTek, Winooski, VT, USA) set at 550 nm wavelength. The MIC value was the lowest concentration of a peptide that inhibits visible bacterial growth. Once the MIC values were determined, an aliquot from the bacterial culture exposed to the peptide at or above its MIC value was inoculated on a Mueller Hinton agar (MHA) and was incubated at 37 for 18 h. The MBC value was the lowest concentration of a peptide that kills 99.9% of bacteria.

In assay [2] the test system is P. aeruginosa (ATCC CRM 9027). Nature of the assay: microbe, parasite or virus in culture. The note with it: for MBC: ATCC CRM 9027, 18 h; for MIC: ATCC CRM 9027, 24 h. Type of assay: cell-based, Pseudomonas aeruginosa. As for the experimental part:
as §1

For assay [3], the system named is E. coli (ATCC CRM 8739) biofilm. Type of assay: cell-based, Escherichia coli. Conditions: ATCC CRM 8739, 24 h. As for the experimental part:
(§2) The anti-biofilm activities of the peptides against S. aureus (ATCC 6538), MRSA (NCTC 12493), E. faecalis (NCTC 12697), E. coli (ATCC CRM 8739), K. pneumoniae (ATCC 43816), and P. aeruginosa (ATCC CRM 9027), were evaluated. For the MBIC assay, 99 µL of bacterial suspension (5 × 10^5 CFU/mL) was mixed with 1 µL of serial dilutions (from 100 µM to 51,200 µM) of temporin-PKE and its analogues in a 96-well plate, and the plate was incubated in a moist shaking incubator at a speed of 200 rpm at 37 °C for 24 h. For the MBEC assay, 100 µL of bacterial suspension (5 × 10^5 CFU/mL) in each well was seeded in a new 96-well plate, and the plate was put into the same shaking incubator for 24 h incubation to allow biofilm formation on the well. After biofilm formation, the biofilm in the plate was washed with PBS twice. The PBS was aspirated between washes to remove planktonic bacterial cells. The washed biofilm in each well was treated with 100 µL of serial dilutions (from 1 µM to 512 µM) of the test peptides. Then, the plate was incubated in the same shaking incubator for another 24 h. After being washed by PBS twice and fixed with methanol, the biofilm in each well was incubated with 100 µL of 0.1% crystal violet for 30 min, and the stained biofilm was dissolved in 100 µL of glacial acidic acid after drying. The solutions were transferred to a new microplate, and the absorbance of each well was measured using a microplate reader (EL808, Biolise BioTek, Winooski, VT, USA) set to 595 nm wavelength. The MBIC was the minimum concentration of the peptide showing no biofilm formation. The MBEC is the lowest concentration of the peptide capable of eradicating the mature biofilms, which had no biofilm in the well.

Assay [4] relates to HaCaT cells. Type of assay: cell-based, human. Conditions: 24 h. As for the experimental part: The cytotoxicity of the peptides against the human epidermal keratinocyte line, HaCaT, was tested using the MTT cell viability assay as described in a previous study. The 100 µL of the cell suspension in a complete DMEM medium with a density of 10,000 cells/mL was seeded in a 96-well plate and incubated overnight at 37 °C in a humidified 5% CO2 atmosphere. After 4 h of starvation in a serum-free medium, 100 μL of serial dilutions (from 10^−9 M to 10^−4 M) of temporin-PKE and its analogues was added to each well, and the plate was incubated for 24 h. The serum-free medium and 0.1% Triton X-100 were used as the negative and positive control, respectively. Then, MTT solution, at a volume of 10 μL, was added to each well, and the plate was incubated for 2 h. After this, the medium was replaced by 100 μL of DMSO, and plates were put in the shaking incubator for 15 min. The absorbance of each well was measured using a microplate reader (EL808, Biolise BioTek, Winooski, VT, USA) set to a wavelength of 570 nm. The equation used to calculate the viability of the cells is shown below: Cell viability (%)=A−Ab/An−Ab×100% where A represents the absorbance of each treatment group, Ab represents the average absorbance of the wells in the blank control group (cells not exposed to the test peptide and MTT), and An represents the average absorbance of the wells in the negative control group (cells not exposed to the test peptide).

Assay [5] deals with E. faecalis (NCTC 12697). Nature of the assay: microbe, parasite or virus in culture. Type of assay: cell-based, Enterococcus faecalis. The note with it: for MBC: NCTC 12697, 18 h; for MIC: NCTC 12697, 24 h. As for the experimental part:
as §1

Assay [6] concerns S. aureus (ATCC 6538) biofilm. Type of assay: cell-based, Staphylococcus aureus. Conditions: ATCC 6538, 24 h. As for the experimental part:
as §2

For assay [7], the system named is E. faecalis (NCTC 12697) biofilm. Type of assay: cell-based, Enterococcus faecalis. The note with it: NCTC 12697, 24 h. As for the experimental part: as §2
For assay [8], the system named is S. aureus (ATCC 6538). Put plainly: microbe, parasite or virus in culture. Type of assay: cell-based, Staphylococcus aureus. Conditions: for MBC: ATCC 6538, 18 h; for MIC: ATCC 6538, 24 h. As for the experimental part:
as §1

Values after ≈ are worked out from the molar mass of the structure shown. Where two headings read alike, the source gives them in different places. Non-standard residues stand in square brackets, D forms with d. Residues, ends and D or L forms follow the SMILES beside them. No end group written: not given here.

Broadly, the IC50 is the point on the concentration scale where inhibition reaches its midpoint. Read a low IC50 as inhibition by little substance. Regarding `CC[C@@H](C)[C@@H](NC(=O)[C@H](CCCCN)NC(=O)[C@@H]1CCCN1C(=O)[C@H](CC(C)C)NC(=O)[C@H](CC(C)C)NC(=O)[C@H](CO)NC(=O)[C@H](CO)NC(=O)[C@H](CC(C)C)NC(=O)[C@H](C)NC(=O)CNC(=O)[C@H](NC(=O)[C@H](NC(=O)[C@H](CC(C)C)NC(=O)[C@@H]1CCCN1C(=O)[C@H](CC(C)C)NC(=O)[C@@H](N)Cc1ccccc1)[C@H](C)CC)[C@H](C)CC)C(=O)N[C@@H](Cc1ccccc1)C(N)=O` [Temporin-PKE-3i] (H-FLPL[dI][dI]GALSSLLPK[dI]F-NH2), the MBC in assay [1] (read-out: MBC) is over 512 µM; in assay [2] (read-out: MBC) it was over 512 µM; in assay [5] it was 128 µM (≈ 236 µg/mL); in assay [8] it was 32 µM (≈ 58.9 µg/mL). Further, the MIC in assay [1] (read-out: MIC) was over 512 µM; in assay [2] (read-out: MIC) it was over 512 µM; in assay [5], 128 µM (≈ 236 µg/mL); in assay [8], 32 µM (≈ 58.9 µg/mL). Besides, the MBIC in assay [3] was over 512 µM; in assay [6], 64 µM; in assay [7], 128 µM. The same molecule returned a half-maximal inhibitory concentration (IC50) in assay [4] of 497 µM.

For FLPLIIGKLSSLLPKIF-NH2 [Temporin-PKE-2K], the MBC is 32 µM in assay [1], 256 µM in assay [2] (read-out: MBC), 2 µM in assay [5] and 2 µM in assay [8]. The MIC amounted to 32 µM in assay [1], 128 µM in assay [2] (read-out: MIC), 2 µM in assay [5] and 2 µM in assay [8]. Also, the figures for the MBIC in assay [3], in assay [6] and in assay [7] were 64 µM, 2 µM and 16 µM, respectively. The molecule also showed a half-maximal inhibitory concentration (IC50) in assay [4] of 9.04 µM.

Take FLPKIIGKLSSLLPKIF-NH2 [Temporin-PKE-3K]: the MBC turned out to be 8 µM in assay [1], 16 µM in assay [2], 2 µM in assay [5] and 2 µM in assay [8]. Besides, the MIC in assay [1] amounted to 8 µM; in assay [2] it was 16 µM; in assay [5] it was 2 µM; in assay [8], 2 µM. The MBIC in assay [3] worked out at 16 µM; in assay [6], 2 µM; in assay [7], 4 µM. In assay [4], this molecule yielded a 50% inhibitory concentration (IC50) of 29.6 µM.

Turning to FLPKIIGKLSSKLPKIF-NH2 [Temporin-PKE-4K], the MBC in assay [1] was determined as 32 µM; in assay [2] it was 64 µM; in assay [5], 32 µM; in assay [8] it was 32 µM. For the same molecule, the MIC in assay [1] worked out at 32 µM; in assay [2], 64 µM; in assay [5] it was 32 µM; in assay [8] it was 32 µM. The values for the MBIC in assay [3], in assay [6] and in assay [7] were 128 µM, 32 µM and 256 µM, respectively. In assay [4], this molecule yielded an IC50 of 251 µM.

As to “FLPLIIGALSSKLPKIF-NH2 [Temporin-PKE-K12]”, the MBC in assay [1] came out at 64 µM; in assay [2], 256 µM; in assay [5], 8 µM; in assay [8], 4 µM. Moreover, the MIC in assay [1] stood at 64 µM; in assay [2], 256 µM; in assay [5], 8 µM; in assay [8], 4 µM. Also, the values for the MBIC in assay [3], in assay [6] and in assay [7] were 64 µM, 4 µM and 64 µM, respectively. For the same molecule, the half-maximal inhibitory concentration (IC50) in assay [4] stood at 19 µM.

For the molecule FLPLIIGALSSLLPKIF-NH2 [Temporin-PKE], the MBC is over 512 µM in assay [1] (read-out: MBC), over 512 µM in assay [2] (read-out: MBC), 8 µM in assay [5] and 2 µM in assay [8]. Besides, the MIC in assay [1] (read-out: MIC) was over 512 µM; in assay [2] (read-out: MIC) it was over 512 µM; in assay [5], 8 µM; in assay [8] it was 2 µM. Further, the results for the MBIC in assay [3], in assay [6] and in assay [7] were over 512 µM, 2 µM and 32 µM, respectively. This molecule came in with a 50% inhibitory concentration (IC50) in assay [4] of 5.04 µM.

Turning to `CC[C@@H](C)[C@@H](NC(=O)[C@H](CCCCN)NC(=O)[C@@H]1CCCN1C(=O)[C@H](CC(C)C)NC(=O)[C@H](CC(C)C)NC(=O)[C@H](CO)NC(=O)[C@H](CO)NC(=O)[C@H](CC(C)C)NC(=O)[C@H](C)NC(=O)CNC(=O)[C@@H](NC(=O)[C@@H](NC(=O)[C@H](CC(C)C)NC(=O)[C@@H]1CCCN1C(=O)[C@H](CC(C)C)NC(=O)[C@@H](N)Cc1ccccc1)[C@@H](C)CC)[C@@H](C)CC)C(=O)N[C@@H](Cc1ccccc1)C(N)=O` [Temporin-PKE-i] (H-FLPLIIGALSSLLPK[dI]F-NH2), the MBC in assay [1] (read-out: MBC) was over 512 µM; in assay [2] (read-out: MBC) it was over 512 µM; in assay [5], 4 µM (≈ 7.37 µg/mL); in assay [8], 2 µM (≈ 3.68 µg/mL). Moreover, the MIC was over 512 µM in assay [1] (read-out: MIC), over 512 µM in assay [2] (read-out: MIC), 4 µM (≈ 7.37 µg/mL) in assay [5] and 2 µM (≈ 3.68 µg/mL) in assay [8]. Also, the MBIC in assay [3] is over 512 µM; in assay [6] it was 2 µM; in assay [7], 4 µM. The molecule further came in with a 50% inhibitory concentration (IC50) in assay [4] of 11.9 µM.

The values are drawn from article PMC9221509, “Discovery of a Novel Antimicrobial Peptide, Temporin-PKE, from the Skin Secretion of Pelophylax kl. esculentus, and Evaluation of Its Structure-Activity Relationships” (Biomolecules, 2022).
